One data set has as its target T1, hDP/Gqs5 (Homo sapiens, UniProt Q13258).
T1 construct: expressed in transfected cells; host or cells: HEK-293(EBNA) cells
T1 sequence (Q13258 1-359): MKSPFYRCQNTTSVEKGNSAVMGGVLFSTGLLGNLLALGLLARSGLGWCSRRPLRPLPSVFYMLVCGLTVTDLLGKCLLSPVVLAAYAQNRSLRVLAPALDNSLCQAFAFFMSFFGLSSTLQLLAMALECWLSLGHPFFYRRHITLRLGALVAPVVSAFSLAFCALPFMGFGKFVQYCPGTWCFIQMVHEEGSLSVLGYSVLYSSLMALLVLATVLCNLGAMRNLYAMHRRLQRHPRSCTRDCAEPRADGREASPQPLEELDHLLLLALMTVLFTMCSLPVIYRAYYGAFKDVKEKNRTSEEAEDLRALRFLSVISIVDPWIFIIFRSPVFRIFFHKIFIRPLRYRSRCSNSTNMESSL
The data set is described as follows: FLIPR calcium signal, HEK-293(EBNA) cells. In kind it is cell-based.

The next data set has as its target hEP2 (Homo sapiens, UniProt P43116). As to the kind of experiment: hEP2 cAMP functional assay. The settings on record: Table 1, second part. In kind it is cell-based.
In data set [1] the test system is normotensive dogs. As to the kind of experiment: Intraocular pressure (IOP) in normotensive dogs. The following applies: Canis lupus familiaris, topical, 120 h, dosing once daily for 5 days, read-out: maximum IOP decrease from baseline (percent). The data set is classed as in vivo, dog. As to the method: (§1) (Z)-7-[(1R,2S,3R,5R)-5-Chloro-2-(3,5-dichloro-phenoxymethyl)-3-hydroxy-cyclopentyl]-hept-5-enoic acid (15b) was tested at multiple concentrations in normotensive dogs, dosing once daily for 5 days. At 0.05%, the maximum IOP decrease from baseline was 4.3 mmHg (30%) at 6 h; the maximum OSH score was 0.6 at 6 h. […] This compound was also tested in laser-induced hypertensive monkeys, using one single day dose. At 0.1%, the maximum IOP decrease from baseline was 6 mmHg (19%) at 6 h.
(§2) (Z)-7-[(1R,2S,3R,5R)-5-Chloro-2-(3,5-dichloro-phenoxymethyl)-3-hydroxy-cyclopentyl]-hept-5-enoic acid isopropyl ester (42b) was tested in normotensive dogs at 0.05%, dosing once daily for 5 days. The maximum intraocular pressure (IOP) decrease from baseline was 3 mmHg (19%) at 6 h; the maximum ocular surface hyperemia (OSH) score was 0.6 at 74 h. This compound was also tested in laser-induced hypertensive monkeys, using one single day dose. At 0.01%, the maximum IOP decrease from baseline was 6 mmHg (16%) at 6 h.

Data set [2] has as its system normotensive dogs. The data set is described as follows: Ocular surface hyperemia (OSH) in normotensive dogs. In kind it is in vivo, dog. The following applies: dosing once daily for 5 days. Further details: maximum OSH score: scale not given here. As to the method:
as §1, §2

The subject of data set [3] is laser-induced hypertensive monkeys. The data set is described as follows: Intraocular pressure (IOP) in laser-induced hypertensive monkeys. The data set is classed as in vivo, monkey. The following applies: Primates, topical, 0.1%, one single day dose, read-out: maximum IOP decrease from baseline (percent). The method, then:
as §1, §2

Setting [4] is: Table 1, first part, triplicate, read-out: functional data (EC50) hDP.
The mark [5] stands for this setting: Table 1, second part, quantity not given, values match functional data (EC50) of first part, read-out: Other Receptors hDP.

Each structure is given as a SMILES string. Where two headings read alike, the source gives them in different places. Bounds are passed on as bounds.

Chain of hEP2 (P43116 whole entry): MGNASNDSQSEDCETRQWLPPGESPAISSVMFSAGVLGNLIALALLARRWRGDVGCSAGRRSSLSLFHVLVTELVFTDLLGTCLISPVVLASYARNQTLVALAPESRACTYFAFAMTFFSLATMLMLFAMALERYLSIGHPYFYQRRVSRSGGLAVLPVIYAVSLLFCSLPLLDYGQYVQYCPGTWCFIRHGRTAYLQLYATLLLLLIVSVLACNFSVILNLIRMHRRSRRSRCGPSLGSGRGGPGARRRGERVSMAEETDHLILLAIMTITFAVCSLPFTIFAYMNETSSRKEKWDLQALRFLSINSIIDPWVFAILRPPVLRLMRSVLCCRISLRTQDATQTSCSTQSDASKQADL

With `O=C(O)CCCCCC[C@@H]1[C@@H](COc2ccccc2)[C@H](O)C[C@H]1Cl` [Example 10, 7-((1R,2S,3R,5R)-5-Chloro-3-hydroxy-2-phenoxymethyl-cyclopentyl)-heptanoic acid], the figures for the EC50 on hDP/Gqs5 (setting [4]), on hDP/Gqs5 (setting [5]) and at hEP2 were more than 10 µM, more than 10 µM and 0.047 µM, respectively.

Consider `O=C(O)CCC/C=C\C[C@@H]1[C@@H](COc2ccccc2)[C@H](O)C[C@H]1Cl` [Example 8, (Z)-7-((1R,2S,3R,5R)-5-Chloro-3-hydroxy-2-phenoxymethyl-cyclopentyl)-hept-5-enoic acid], for which the EC50 at hDP/Gqs5 (setting [4]) and at hDP/Gqs5 (setting [5]) was more than 10 µM in each case.

Regarding `O=C(O)CCCCCC[C@H]1C(=O)CC[C@@H]1COc1ccccc1` [Example 6, 7-((1R,5S)-2-Oxo-5-phenoxymethyl-cyclopentyl)-heptanoic acid], the EC50 at hDP/Gqs5 (setting [4]) was more than 10 µM; at hDP/Gqs5 (setting [5]), more than 10 µM; at hEP2, 0.234 µM.

`O=C(O)CCC/C=C\C[C@@H]1[C@@H](COc2cc(Cl)cc(Cl)c2)[C@H](O)C[C@H]1Cl` [Example 12, (Z)-7-[(1R,2S,3R,5R)-5-Chloro-2-(3,5-dichloro-phenoxymethyl)-3-hydroxy-cyclopentyl]-hept-5-enoic acid]: the EC50 at hDP/Gqs5 (setting [4]) is more than 10 µM; at hDP/Gqs5 (setting [5]), more than 10 µM; on hEP2 it was 0.0009 µM. In addition, in the data set on normotensive dogs [1] (0.05%), the inhibition in vivo at 0.05 % is 30%. Also, the inhibition in vivo at 0.1 % is 34% in the data set with normotensive dogs [1] (0.1%) and 19% in data set [3]. Also, the “maximum OSH score” value was 0.6 in the data set with normotensive dogs [2] (0.05%) and 1.3 in the data set with normotensive dogs [2] (0.1%). The “time of maximum OSH score” value with normotensive dogs [2] (0.05%) and with normotensive dogs [2] (0.1%) was 6 h in each case.

Take `O=C(O)CCCCCC[C@@H]1[C@@H](COc2cc(Cl)cc(Cl)c2)[C@H](O)C[C@H]1Cl` [Example 14, 7-[(1R,2S,3R,5R)-5-Chloro-2-(3,5-dichloro-phenoxymethyl)-3-hydroxy-cyclopentyl]-heptanoic acid]: the EC50 was more than 10 µM at hDP/Gqs5 (setting [4]), more than 10 µM at hDP/Gqs5 (setting [5]) and 0.014 µM on hEP2.

These data come from patent US7635716B2, “Substituted cyclopentanes or cyclopentanones as therapeutic agents” (Allergan, Inc., priority 2005, dated 2009).
